Measurements taken from patent US9783488B2 (CHDI Foundation, Inc., priority 2013, dated 2017).

How the values were obtained:
[1] = molecular target: human catalytic domain HDAC4 protein (amino acids 648-1032) (Homo sapiens (Human), UniProt P56524); experiment: Inhibition of HDAC4 catalytic domain enzymatic activity, fluorogenic substrate Boc-Lys(Tfa)-AMC; details: HDAC4 catalytic domain enzyme, read-out: Biochemical HDAC4 IC50
Source text: Analysis of Inhibition of HDAC4 with Class IIa Histone Deacetylase (HDAC) Inhibitors
The potency of Class IIa Histone Deacetylase (HDAC) inhibitors is quantified by measuring the Histone Deacetylase 4 (HDAC4) catalytic domain enzymatic activity using the fluorogenic substrate, Boc-Lys(Tfa)-AMC. The substrate is deacetylated to Boc-Lys-AMC by HDAC4. Cleavage by trypsin results in the release of the fluorophore AMC from the deacetylated substrate. The fluorescence of the sample is directly related to the histone deacetylase activity in the sample.
Serially dilute HDAC inhibitor compounds. […] Stocks of 6 μl aliquots of the 10 mM compound in DMSO are prepared and stored at […]. From one stock aliquot of each compound to be tested and the reference compound, a 16-point serial dilution is prepared according to Table 1 using a 125 μl 16-channel Matrix multi-channel pipette (Matrix Technologies Ltd).
2 μl (200×) of each diluted solution and each control (full activity: 100% DMSO alone or full inhibition 1 mM) is stamped into V-bottomed polypropylene 384-well compound plates using either the Bravo (384-well head from Agilent) or 12.5 μl 16-channel Matrix multi-channel pipette (Matrix Technologies Ltd).
Prepare HDAC4 catalytic domain enzyme (0.2 μg/mL).
Prepare 5× ([…]) Boc-Lys(Tfa)-AMC Substrate. 5× (50 μM) substrate is prepared just prior to the addition to the assay. A 1 mM substrate stock is made by diluting a 100 mM Boc-Lys(Tfa)-AMC in DMSO solution 1:100 by adding it drop-wise to assay buffer (equilibrated to r.t.) while vortexing at slow speed to prevent precipitation. The 5× substrate is prepared by diluting the 1 mM substrate solution 1:20 by adding it drop-wise to assay buffer (equilibrated to r.t.) while vortexing at slow speed to prevent precipitation.
Prepare 3× (30 μM) Developer/Stop Solution.
Assay. 5 μl of each solution of 1:20 diluted compound from above is transferred to a clear bottomed, black, 384-well assay plate using the Bravo or the Janus (384-well MDT head from Perkin Elmer). Using a 16-channel Matrix multi-channel pipette, 35 μl of the working solution of HDAC4 catalytic domain enzyme (0.2 μg/mL in assay buffer) is transferred to the assay plate. […] The assay plate is then shaken for two minutes on an orbital shaker at 900 rpm (rotations per minute). Next the plate is incubated for 15 minutes at 37° C. The reaction is stopped by adding 25 μl of 3× (3 μM) developer/stop solution to the assay plates using either the Bravo, Janus or a 16-channel Matrix multi-channel pipette. Assay plates are then shaken for 5 minutes on an orbital shaker at 1200 rpm. Next, the assay plates are incubated at 37° C. for 1 hour in a tissue culture incubator.

[2] = tested on: cellular histone deacetylase enzymatic activity in Jurkat E6-1 cells; experiment: Inhibition of cellular HDAC activity in Jurkat E6-1 cells, fluorogenic substrate Boc-Lys(Tfa)-AMC; format: cell-based; details: Homo sapiens, read-out: Cell IC50
Source text: Analysis of Inhibition of Cellular HDAC Activity with Class IIa Histone Deacetylase (HDAC) Inhibitors
The potency of Class IIa Histone Deacetylase (HDAC) inhibitors is quantified by measuring the cellular histone deacetylase enzymatic activity using the fluorogenic substrate, Boc-Lys(Tfa)-AMC. After penetration in Jurkat E6-1 cells, the substrate is deacetylated to Boc-Lys-AMC. After cell lysis and cleavage by trypsin, the fluorophore AMC is released from the deacetylated substrate only. The fluorescence of the sample is directly related to the histone deacetylase activity in the sample.
Jurkat E6.1 cell culture and plating. Jurkat E6.1 cells are cultured according to standard cell culture protocols in Jurkat E6.1 Growth Media (RPMI without phenol red, 10% FBS, 1 mM HEPES, and 1 mM Sodium Pyruvate). Jurkat E6.1 cells are counted using a Coulter Counter and resuspended in Jurkat E6.1 growth media at a concentration of 75,000 cells/35 μl. 35 μl or 75,000 cells is seeded into Greiner microtitre assay plates. The plates are then incubated at 37° C. and 5% CO2 while other assay components are being prepared.
Serially dilute HDAC inhibitor compounds. Serial dilutions of the HDAC inhibitors and control reference compound (1-(5-(3-((4-(1,3,4-oxadiazol-2-yl)phenoxy)methyl)-1,2,4-oxadiazol-5-yl)thiophen-2-yl)-2,2,2-trifluoroethanone) are made by first resuspending the lyophilized compound to a final concentration of 10 mM in […]. Stocks of 70 μl aliquots of the 10 mM compound in DMSO are prepared and stored at −20° C. From one stock aliquot of each compound to be tested and the reference compound, a 16-point serial dilution is prepared according to Table 1 using a 125 μl 16-channel Matrix multi-channel pipette.
2 μl (200×) of each diluted solution and each control (full activity: 100% DMSO alone or full inhibition 1 mM) is stamped into V-bottom polypropylene 384-well compound plates using either the Bravo, Janus, or 12.5 μl 16-channel Matrix multi-channel pipette. Each well with the 200× compound solution is diluted 1:20 by the addition of 38 μl Jurkat assay buffer+DMSO (9.5% DMSO, RPMI without phenol red, 0.09% FBS, 9 mM Hepes, and 0.9 mM Sodium Pyruvate equilibrated to r.t.)
Prepare 5× (500 μM) Boc-Lys(Tfa)-AMC substrate. 5× (500 μM) substrate is prepared just prior to the addition to the assay. The 5× substrate is prepared by diluting a 100 mM Boc-Lys(Tfa)-AMC in DMSO solution 1:200 by adding it drop-wise to Jurkat assay medium (RPMI without phenol red, 0.1% FBS, 10 mM Hepes, and 1 mM Sodium Pyruvate equilibrated to 37° C.) while vortexing at slow speed to prevent precipitation.
Prepare 3× Lysis Buffer. 10 mL of 3× lysis buffer is prepared with 8.8 mL of 3× stock lysis buffer (50 mM Tris-HCl, pH 8.0, 137 mM NaCl, 2.7 mM KCl, 1 mM MgCl2, 1% Nonidet P40 Substitute equilibrated to r.t.) and 1.2 mL of 3 mg/mL Trypsin equilibrated to r.t.
Assay. 5 μl of each solution of 1:20 diluted compound from above is transferred to the Greiner microtitre assay plates with 75,000 cells/well using the Bravo. Cells are then incubated for 2 hours at 37° C. and 5% CO2. The assay is then started by adding 10 μl of 5× (500 μM) substrate to the assay plate using either the Bravo or 16-channel Matrix multi-channel pipette. The cells are then incubated for 3 hours at 37° C. and 5% CO2. Next, 25 μl of 3× lysis buffer is added to each well using either the 125 μl 16 channel pipette or the Bravo. The assay plate is then incubated overnight (15-16 hours) at 37° C. and 5% CO2. The following day, the plates are shaken on an orbital shaker for 1 minute at 900 rpm. Finally the top read fluorescence (Excitation: 355 nm, Emission: 460 nm) is measured using PerkinElmer EnVision.

Sequence of human catalytic domain HDAC4 protein (amino acids 648-1032) (P56524 648-1032): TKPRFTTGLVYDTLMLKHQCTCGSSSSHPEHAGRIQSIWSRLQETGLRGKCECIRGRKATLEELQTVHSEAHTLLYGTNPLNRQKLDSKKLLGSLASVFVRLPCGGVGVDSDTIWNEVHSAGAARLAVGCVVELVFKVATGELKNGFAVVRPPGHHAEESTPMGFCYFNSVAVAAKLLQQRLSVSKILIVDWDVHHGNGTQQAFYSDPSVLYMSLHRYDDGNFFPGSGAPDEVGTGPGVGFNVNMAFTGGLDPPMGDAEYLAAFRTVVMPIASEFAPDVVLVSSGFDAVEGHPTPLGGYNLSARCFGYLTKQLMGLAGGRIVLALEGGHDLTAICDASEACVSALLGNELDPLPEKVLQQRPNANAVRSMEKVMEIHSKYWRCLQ

Row | Structure (SMILES) | IC50 [1] [nM] | IC50 [2] [nM]
1 | Cc1c(F)cccc1[C@]1(C(=O)NO)CC[C@H](c2ccc(F)cn2)C1 (relative stereo) [Example 11, (1S,3S*)-1-(3-fluoro-2-methylphenyl)-3-(5-fluoropyridin-2-yl)-N-hydroxycyclopentane carboxamide] | 200 | 1830
2 | Cc1c(F)cccc1[C@]1(C(=O)NO)CC[C@@H](c2ccc(F)cn2)C1 (relative stereo) [Example 12, (1S,3R*)-1-(3-fluoro-2-methylphenyl)-3-(5-fluoropyridin-2-yl)-N-hydroxycyclopentane carboxamide] | 240 | 2370
3 | COc1ncc([C@H]2CC[C@@](C(=O)NO)(c3cccc(F)c3C)C2)cc1F (relative stereo) [Example 44, (1S,3S*)-1-(3-fluoro-2-methylphenyl)-3-(5-fluoro-6-methoxypyridin-3-yl)-N-hydroxycyclopentanecarboxamide] | 330 | 1700
4 | COc1ncc([C@@H]2CC[C@@](C(=O)NO)(c3cccc(F)c3C)C2)cc1F (relative stereo) [Example 45, (1S,3R*)-1-(3-fluoro-2-methylphenyl)-3-(5-fluoro-6-methoxypyridin-3-yl)-N-hydroxycyclopentanecarboxamide] | 190 | 420
5 | Cc1c(F)cccc1[C@]1(C(=O)NO)CC[C@@H](c2cnc(OCCN3CCCC3)c(F)c2)C1 (relative stereo) [Example 48, (1 S,3R*)-1-(3-Fluoro-2-methylphenyl)-3-(5-fluoro-6-(2-(pyrrolidin-1-yl)ethoxy)pyridin-3-yl)-N-hydroxycyclopentanecarboxamide] | 320 | 750
6 | Cc1c(F)cccc1[C@]1(C(=O)NO)CC[C@@H](c2ccnn2C)C1 (relative stereo) [Example 49, (1S,3R*)-1-(3-Fluoro-2-methylphenyl)-N-hydroxy-3-(1-methyl-1H-pyrazol-5-yl)cyclopentane carboxamide] | 170 | 400
7 | Cc1c(F)cccc1[C@]1(C(=O)NO)CC[C@H](c2ccnn2C)C1 (relative stereo) [Example 50, (1S,3S*)-1-(3-Fluoro-2-methylphenyl)-N-hydroxy-3-(1-methyl-1H-pyrazol-5-yl)cyclopentanecarboxamide] | 250 | 1800
8 | Cc1c(F)cccc1[C@]1(C(=O)NO)CC[C@@H](c2ccc3cnn(C)c3c2)C1 (relative stereo) [Example 56, (1S,3R*)-1-(3-fluoro-2-methylphenyl)-N-hydroxy-3-(1-methyl-1H-indazol-6-yl)cyclopentanecarboxamide] | 140 | 230
9 | Cc1c(F)cccc1[C@]1(C(=O)NO)CC[C@@H](c2ccn3ccnc3c2)C1 (relative stereo) [Example 57, (1S,3R*)-1-(3-fluoro-2-methylphenyl)-N-hydroxy-3-(imidazo[1,2-a]pyridin-7-yl)cyclopentanecarboxamide] | 98 | 180
10 | Cc1c(F)cccc1[C@]1(C(=O)NO)CC[C@@H](c2cccc3cnn(C)c23)C1 (relative stereo) [Example 60, (1S,3R*)-1-(3-fluoro-2-methylphenyl)-N-hydroxy-3-(1-methyl-1H-indazol-7-yl)cyclopentanecarboxamide] | 360 | 810
11 | Cc1c(F)cccc1[C@]1(C(=O)NO)CC[C@@H](c2ccc3oc(C4CC4)nc3c2)C1 (relative stereo) [Example 62, (1S,3R*)-3-(2-cyclopropylbenzo[d]oxazol-5-yl)-1-(3-fluoro-2-methylphenyl)-N-hydroxycyclopentanecarboxamide] | 280 | 410

Stronger by IC50 [1], values ahead:

Row | IC50 [1] [nM] | IC50 [2] [nM] | Structure (SMILES)
12 | 95 | 540 | Cc1c(F)cccc1[C@]1(C(=O)NO)CC[C@@H](c2cnn(C(F)F)c2)C1 (relative stereo) [Example 46, (1S,3R*)-3-(1-(Difluoromethyl)-1H-pyrazol-4-yl)-1-(3-fluoro-2-methylphenyl)-N-hydroxy cyclopentane carboxamide]
13 | 72 | 110 | Cc1c(F)cccc1[C@]1(C(=O)NO)CC[C@@H](c2ccc3cnn(C(F)F)c3c2)C1 (relative stereo) [Example 54, (1S,3R*)-3-(1-(difluoromethyl)-1H-indazol-6-yl)-1-(3-fluoro-2-methylphenyl)-N-hydroxycyclopentanecarboxamide]
14 | 46 | 160 | Cc1c(F)cccc1[C@]1(C(=O)NO)CC[C@H](c2ccc3cnn(C(F)F)c3c2)C1 (relative stereo) [Example 55, (1S,3S*)-3-(1-(difluoromethyl)-1H-indazol-6-yl)-1-(3-fluoro-2-methylphenyl)-N-hydroxycyclopentanecarboxamide]
15 | 82 | 300 | Cc1c(F)cccc1[C@]1(C(=O)NO)CC[C@H](c2ccn3ccnc3c2)C1 (relative stereo) [Example 58, (1S,3S*)-1-(3-fluoro-2-methylphenyl)-N-hydroxy-3-(imidazo[1,2-a]pyridin-7-yl)cyclopentanecarboxamide]
16 | 73 | 81 | Cc1c(F)cccc1[C@]1(C(=O)NO)CC[C@@H](c2ccc3cn[nH]c3c2F)C1 (relative stereo) [Example 61, (1S,3R*)-3-(7-fluoro-1H-indazol-6-yl)-1-(3-fluoro-2-methylphenyl)-N-hydroxycyclopentanecarboxamide]
